Values quoted from earlier work in patent US6379706B2, “Rapidly disintegrating coated pellets with delayed release” (Roche Diagnostics GmbH, priority 1996, dated 2002).

Conditions: for solubility (in words): aqueous medium

Structure (SMILES) | solubility (in words) | solubility in the intestinal juice (in words) (intestinal juice)
COc1ccccc1OCCNCC(O)COc1cccc2[nH]c3ccccc3c12 (racemic) [Carvedilol, (+/−)-1-(9H-carbazol-4-yloxy)-3-[(2-(2-methoxyphenoxy)-ethyl)-amino]-2-propanol] | poorly soluble | particularly poorly soluble
CC(C)(Oc1ccc(CCNC(=O)c2ccc(Cl)cc2)cc1)C(=O)O [Bezafibrat, 2-{4-[2-[(4-chloro-benzoyl)-amino]ethyl]-phenoxy}-2-methylpropionic acid] | poorly soluble | –
Cc1cccc(Nc2ccncc2S(=O)(=O)NC(=O)NC(C)C)c1 [Torasemid, 1-isopropyl-3-[(4-m-toluidino-3-pyridyl)sulfonyl]-urea] | poorly soluble | –
